{"source": "ChEMBL document CHEMBL1142022", "about": "“Synthesis and evaluation of diverse analogs of amygdalin as potential peptidomimetics of peptide T” (Bioorg Med Chem Lett, 2005)", "format_in_all_cases": "functional", "key": {"[1]": {"biological_target": "T-cell surface glycoprotein CD4 (Homo sapiens) (UniProt P01730)", "test": "Chemotactic activity of compound measured as function of concentration of 10 uM compared to peptide T,[DA1a]peptide T and amygdalin"}, "[2]": {"biological_target": "T-cell surface glycoprotein CD4 (Homo sapiens) (UniProt P01730)", "test": "Chemotactic activity of compound measured as function of concentration of 9 uM compared to peptide T,[DA1a]peptide T and amygdalin"}, "[3]": {"biological_target": "T-cell surface glycoprotein CD4 (Homo sapiens) (UniProt P01730)", "test": "Chemotactic activity of compound measured as function of concentration of 6 uM compared to peptide T,[DA1a]peptide T and amygdalin"}, "[4]": {"biological_target": "T-cell surface glycoprotein CD4 (Homo sapiens) (UniProt P01730)", "test": "Chemotactic activity of compound measured as function of concentration of 8 uM compared to peptide T,[DA1a]peptide T and amygdalin"}, "[5]": {"biological_target": "T-cell surface glycoprotein CD4 (Homo sapiens) (UniProt P01730)", "test": "Chemotactic activity of compound measured as function of concentration of 11 uM compared to peptide T,[DA1a]peptide T and amygdalin"}, "[6]": {"biological_target": "T-cell surface glycoprotein CD4 (Homo sapiens) (UniProt P01730)", "test": "Chemotactic activity of compound measured as function of concentration of 7 uM compared to peptide T,[DA1a]peptide T and amygdalin"}}, "data": [{"smiles": "COc1ccc(CO[C@@H]2O[C@@H](CO[C@@H]3O[C@@H](CO)[C@@H](O)[C@H](O)[C@@H]3O)[C@@H](O)[C@H](O)[C@@H]2O)cc1", "values": [{"measurement": "Chemotactic index", "setting": "[1]", "result": 0.87}]}, {"smiles": "CC(C)(C)C(O[C@@H]1O[C@@H](CO[C@@H]2O[C@@H](CO)[C@@H](O)[C@H](O)[C@@H]2O)[C@@H](O)[C@H](O)[C@@H]1O)c1ccccc1", "note": "(stereo not given in full)", "values": [{"measurement": "Chemotactic index", "setting": "[2]", "result": 0.84}]}, {"smiles": "CCC(O[C@@H]1O[C@@H](CO[C@@H]2O[C@@H](CO)[C@@H](O)[C@H](O)[C@@H]2O)[C@@H](O)[C@H](O)[C@@H]1O)c1ccccc1", "note": "(stereo not given in full)", "values": [{"measurement": "Chemotactic index", "setting": "[3]", "result": 0.75}]}, {"smiles": "CC(O[C@@H]1O[C@@H](CO[C@@H]2O[C@@H](CO)[C@@H](O)[C@H](O)[C@@H]2O)[C@@H](O)[C@H](O)[C@@H]1O)c1ccccc1", "note": "(stereo not given in full)", "values": [{"measurement": "Chemotactic index", "setting": "[4]", "result": 0.77}]}, {"smiles": "COc1ccc(CO[C@@H]2O[C@@H](CO[C@@H]3O[C@@H](CO)[C@@H](O)[C@H](O)[C@@H]3O)[C@@H](O)[C@H](O)[C@@H]2O)c(OC)c1", "values": [{"measurement": "Chemotactic index", "setting": "[1]", "result": 0.84}]}, {"smiles": "C#CC(O[C@@H]1O[C@@H](CO[C@@H]2O[C@@H](CO)[C@@H](O)[C@H](O)[C@@H]2O)[C@@H](O)[C@H](O)[C@@H]1O)c1ccccc1", "note": "(stereo not given in full)", "values": [{"measurement": "Chemotactic index", "setting": "[3]", "result": 0.79}]}, {"smiles": "N#CC(O[C@@H]1O[C@H](CO[C@@H]2O[C@H](CO)[C@@H](O)[C@H](O)[C@H]2O)[C@@H](O)[C@H](O)[C@H]1O)c1ccccc1", "note": "(single isomer, unassigned)", "values": [{"measurement": "Chemotactic index", "setting": "[1]", "result": 0.63}]}, {"smiles": "OC[C@@H]1O[C@@H](OC[C@@H]2O[C@@H](OCCc3ccccc3)[C@@H](O)[C@@H](O)[C@@H]2O)[C@@H](O)[C@@H](O)[C@@H]1O", "values": [{"measurement": "Chemotactic index", "setting": "[2]", "result": 0.7}]}, {"smiles": "C[C@H](N)C(=O)N[C@@H](CO)C(=O)N[C@H](C(=O)N[C@H](C(=O)N[C@H](C(=O)N[C@@H](CC(N)=O)C(=O)N[C@@H](Cc1ccc(O)cc1)C(=O)N[C@H](C(=O)O)[C@@H](C)O)[C@@H](C)O)[C@@H](C)O)[C@@H](C)O", "values": [{"measurement": "Chemotactic index", "setting": "[5]", "result": 1.09}]}, {"smiles": "NC(=O)[C@H](O[C@@H]1O[C@@H](CO[C@@H]2O[C@@H](CO)[C@@H](O)[C@H](O)[C@@H]2O)[C@@H](O)[C@H](O)[C@@H]1O)c1ccccc1", "values": [{"measurement": "Chemotactic index", "setting": "[6]", "result": 0.84}]}, {"smiles": "C[C@@H](N)C(=O)N[C@@H](CO)C(=O)N[C@H](C(=O)N[C@H](C(=O)N[C@H](C(=O)N[C@@H](CC(N)=O)C(=O)N[C@@H](Cc1ccc(O)cc1)C(=O)N[C@H](C(N)=O)[C@@H](C)O)[C@@H](C)O)[C@@H](C)O)[C@@H](C)O", "values": [{"measurement": "Chemotactic index", "setting": "[5]", "result": 0.89}]}, {"smiles": "OC[C@@H]1O[C@@H](OC[C@@H]2O[C@@H](OCc3c4ccccc4cc4ccccc34)[C@@H](O)[C@@H](O)[C@@H]2O)[C@@H](O)[C@@H](O)[C@@H]1O", "values": [{"measurement": "Chemotactic index", "setting": "[4]", "result": 0.94}]}, {"smiles": "OC[C@@H]1O[C@@H](OC[C@@H]2O[C@@H](OCc3ccccc3Br)[C@@H](O)[C@@H](O)[C@@H]2O)[C@@H](O)[C@@H](O)[C@@H]1O", "values": [{"measurement": "Chemotactic index", "setting": "[1]", "result": 0.94}]}, {"smiles": "OC[C@@H]1O[C@@H](OC[C@@H]2O[C@@H](OCc3ccccc3)[C@@H](O)[C@@H](O)[C@@H]2O)[C@@H](O)[C@@H](O)[C@@H]1O", "values": [{"measurement": "Chemotactic index", "setting": "[4]", "result": 0.76}]}, {"smiles": "O=C(O)[C@H](O[C@@H]1O[C@@H](CO[C@@H]2O[C@@H](CO)[C@@H](O)[C@H](O)[C@@H]2O)[C@@H](O)[C@H](O)[C@@H]1O)c1ccccc1", "values": [{"measurement": "Chemotactic index", "setting": "[2]", "result": 0.71}]}]}
